Measurements from patent US10875855B2 (priority 2011, dated 2020).
Like-named read-outs stand apart in the source and are kept apart here.

Key:
[1] = tested on: influenza A virus (A/PR/8/34); test: MDCK cytopathic effect (CPE) cell protection assay, ATP detection; assay type: cell-based
[2] = tested on: influenza A virus (A/PR/8/34); test: microbe, parasite or virus in culture; assay type: cell-based
[3] = Influenza A virus, PR/8, MDCK, 72 h, Table 1, MDCK cells, A/PR/8/34, 72 hours, 50% cell protection, mean all, class symbol, read-out: MDCK IC50
[4] = Influenza A virus, PR/8, Table 1, mean all, class symbol, read-out: bDNA EC99
[5] = Influenza A virus, PR/8, Table 1, viral RNA 50% of control wells, mean all, class symbol, read-out: bDNA EC50
[6] = Table 1, mean all, class symbol

Structure (SMILES) | IC50 [1, 3] | EC99 [2, 4] | EC50 [2, 5] | IC50 ([1]; Influenza A virus, PR/8, MDCK, exemplary data, MDCK cell protection, read-out: IC50) | EC50 ([2]; Influenza A virus, PR/8, exemplary data, bDNA, read-out: EC50) | EC99 ([2]; exemplary data, bDNA) | IC50 ([1]; Table 1, MDCK cells, A/PR/8/34, 72 hours, 50% cell protection, mean all, class symbol, read-out: MDCK IC50) | bDNA EC99 (uM) [2, 6] | EC50 ([2]; Table 1, viral RNA 50% of control wells, mean all, class symbol, read-out: bDNA EC50)
COC(=O)C[C@@H](Nc1nc(-c2n[nH]c3ncc(Cl)cc23)ncc1F)C(C)(C)C [Compound 96] | < 300 nM | 0.3 to 3.3 µM | < 300 nM |  |  |  |  |  | 
CCCNS(=O)(=O)C[C@@H](Nc1nc(-c2c[nH]c3ncc(F)cc23)ncc1F)C(C)(C)C [Compound 34, (S)-2-(5-Fluoro-2-(5-fluoro-1H-pyrrolo[2,3-b]pyridin-3-yl)pyrimidin-4-ylamino)-3,3-dimethyl-N-propylbutane-1-sulfonamide] | < 300 nM | 0.3 to 3.3 µM | < 300 nM |  |  |  |  |  | 
CC(C)(C)[C@@H](CO)Nc1nc(-c2c[nH]c3ncc(Cl)cc23)ncc1F [Compound 49, (S)-2-((2-(5-chloro-1H-pyrrolo[2,3-b]pyridin-3-yl)-5-fluoropyrimidin-4-yl)amino)-3,3-dimethylbutan-1-ol] | < 300 nM | 0.3 to 3.3 µM | < 300 nM |  |  |  |  |  | 
CNS(=O)(=O)C[C@H](Nc1nc(-c2c[nH]c3ncc(F)cc23)ncc1F)C(C)(C)C [Compound 38, (R)-2-((5-fluoro-2-(5-fluoro-1H-pyrrolo[2,3-b]pyridin-3-yl)pyrimidin-4-yl)amino)-N,3,3-trimethylbutane-1-sulfonamide] | > 3300 nM | > 3.3 µM | > 3300 nM |  |  |  |  |  | 
CC(C)(C)[C@@H](CC(O)CO)Nc1nc(-c2c[nH]c3ncc(F)cc23)ncc1F (stereo partly drawn) [Compound 70, (4R)-4-((5-fluoro-2-(5-fluoro-1H-pyrrolo[2,3-b]pyridin-3-yl)pyrimidin-4-yl)amino)-5,5-dimethylhexane-1,2-diol] | < 300 nM | 0.3 to 3.3 µM | < 300 nM |  |  |  |  |  | 
CC(C)(C)[C@@H](CO)Nc1nc(-c2c[nH]c3ncc(F)cc23)c(C#N)cc1F [Compound 24, (S)-5-fluoro-2-(5-fluoro-1H-pyrrolo[2,3-b]pyridin-3-yl)-6-((1-hydroxy-3,3-dimethylbutan-2-yl)amino)nicotinonitrile] | < 300 nM | < 0.3 µM | < 300 nM |  |  |  |  |  | 
CC1(C(CC(=O)O)Nc2nc(-c3c[nH]c4ncc(Cl)cc34)ncc2F)CCCCC1 (racemic) [Compound 83, (+/−)-3-(2-(5-Chloro-1H-pyrrolo[2,3-b]pyridin-3-yl)-5-fluoropyrimidin-4-ylamino)-3-(1-methylcyclohexyl)propanoic acid] | 300 to 3300 nM | 0.3 to 3.3 µM | < 300 nM |  |  |  |  |  | 
CC(C)(C)[C@@H](CC(=O)O)Nc1nc(-c2n[nH]c3ncc(F)cc23)c(F)cc1F [Compound 6, (R)-3-((3,5-difluoro-6-(5-fluoro-1H-pyrazolo[3,4-b]pyridin-3-yl)pyridin-2-yl)amino)-4,4-dimethylpentanoic acid] | < 300 nM | < 0.3 µM | < 300 nM | 4 nM | 15 nM | 0.082 µM |  |  | 
O=C(O)CC(Nc1nc(-c2c[nH]c3ncc(F)cc23)ncc1F)C12CC3CC(CC(C3)C1)C2 (racemic) [Compound 86, (+/−)-3-(1-Adamantyl)-3-[[5-fluoro-2-(5-fluoro-1H-pyrrolo[2,3-b]pyridin-3-yl)pyrimidin-4-yl]amino]propionic acid] | < 300 nM | 0.3 to 3.3 µM | < 300 nM |  |  |  |  |  | 
CC(C)(C)[C@@H](CC(O)CO)Nc1nc(-c2c[nH]c3ncc(F)cc23)ncc1F (stereo partly drawn) [Compound 71, (4R)-4-((5-fluoro-2-(5-fluoro-1H-pyrrolo[2,3-b]pyridin-3-yl)pyrimidin-4-yl)amino)-5,5-dimethylhexane-1,2-diol] |  |  |  |  |  |  | < 300 nM | A (EC99 (mean all)<0.3 μM) | < 300 nM
CC(C)(C)N(CC(=O)O)Nc1nc(-c2c[nH]c3ncc(F)cc23)ncc1F [Compound 53, 2-(1-(tert-butyl)-2-(5-fluoro-2-(5-fluoro-1H-pyrrolo[2,3-b]pyridin-3-yl)pyrimidin-4-yl)hydrazinyl)acetic acid] | < 300 nM | 0.3 to 3.3 µM | < 300 nM |  |  |  |  |  | 
CC1(C(CC(=O)O)Nc2nc(-c3c[nH]c4ncc(F)cc34)c(C#N)cc2F)CCCC1 (stereo not drawn) [Compound 13] | < 300 nM | < 0.3 µM | < 300 nM |  |  |  |  |  | 
CCC(C)(C)C(CC(=O)O)Nc1nc(-c2c[nH]c3ncc(F)cc23)ncc1F (stereo not drawn) [Compound 16, 3-((5-fluoro-2-(5-fluoro-1H-pyrrolo[2,3-b]pyridin-3-yl)pyrimidin-4-yl)amino)-4,4-dimethylhexanoic acid] | < 300 nM |  | < 300 nM |  |  |  |  | A (EC99 (mean all)<0.3 μM) | 
